Tests used:
[1] = Miscibility of diclofenac sodium and capsaicin liquid solutions
Protocol: The table below includes the compositions of 7 completely miscible and transparent diclofenac sodium and capsaicin liquid solutions that were prepared.
It is evident that alcohols (ethyl alcohol and/or ethoxydiglycol) are required to effect the solubility of Diclofenac salts within the oil based ingredients of the capsaicin vehicles.

[2] = Diclofenac sodium solubility studies in solvents; assay type: physicochemical; conditions: for DICLOFENAC SODIUM SOLUBILITY: 2 wt. % Diclofenac Sodium
Protocol: All solubility samples were prepared in 20 gram sample size. The ingredients of each test samples were weighed to the nearest 0.01 grams. The 20 gram samples were mixed in 50 cc Pyrex glass beakers.
All solubility studies were performed with “Diclofenac Sodium Salt” obtained from Sigma Aldrich, St. Louis, Mo. (CAS #15307-79-6; Sigma-Aldrich Catalog No. D6899; Lot # BCBB7312; M.P. 275-277° C.)
The ingredients were thoroughly mixed at ambient temperatures ranging from 75° F. to 80° F.

[3] = cited from earlier work
[4] = test system: pain threshold; conditions: in vivo; cited from earlier work
[5] = Solubility of nonivamide / capsaicin in methyl salicylate
[6] = test system: blood flow; conditions: […] gel, topical, cited from earlier work
[7] = test system: nasal airway resistance; conditions: intranasal use, cited from earlier work

For `O=C([O-])Cc1ccccc1Nc1c(Cl)cccc1Cl.[Na+]` [Diclofenac Sodium], the “concentration with complete solubility/miscibility in the ethyl alcohol capsaicin vehicle” value [1] was less than 2 wt. %, the “DICLOFENAC SODIUM SOLUBILITY” value ([2]; Sample 1: 98 wt. % Methyl Salicylate, ambient 75-80° F.) was “Sparingly Soluble/Insoluble” and the “DICLOFENAC SODIUM SOLUBILITY” value ([2]; Sample 2: 50 wt. % Methyl Salicylate, 15 wt. % Menthol, 11 wt. % Camphor, 1.5 wt. % Phenol, 20.5 wt. % Macadamia Nut Oil) was “Sparingly Soluble/Insoluble”. The “DICLOFENAC SODIUM SOLUBILITY” value ([2]; Sample 3: 98 wt. % Ethyl Alcohol) was “^(10)Completely Soluble”, the “DICLOFENAC SODIUM SOLUBILITY” value ([2]; Sample 4: 98 wt. % Transcutol) was “^(10)Completely Soluble” and the “DICLOFENAC SODIUM SOLUBILITY” value ([2]; Sample 5: 88 wt. % Methyl Salicylate, 10 wt. % Ethyl Alcohol) was “^(10)Completely Soluble”. For the same compound, the “DICLOFENAC SODIUM SOLUBILITY” value ([2]; Sample 6: 50 wt. % Methyl Salicylate, 15 wt. % Menthol, 11 wt. % Camphor, 1.5 wt. % Phenol, 18.5 wt. % Macadamia Nut Oil) was “Sparingly Soluble/Insoluble”, the “DICLOFENAC SODIUM SOLUBILITY” value ([2]; Sample 7: 50 wt. % Methyl Salicylate, 15 wt. % Menthol, 11 wt. % Camphor, 1.5 wt. % Phenol, 18.5 wt. % Ethyl Alcohol, 2 wt. % Capsaicin) was “^(10)Completely Soluble” and the “DICLOFENAC SODIUM SOLUBILITY” value ([2]; Sample 8: 50 wt. % Methyl Salicylate, 15 wt. % Menthol, 11 wt. % Camphor, 1.5 wt. % Phenol, 10.5 wt. % Ethyl Alcohol, 2 wt. % Capsaicin) was “^(10)Completely Soluble”. The “effect of heating to ˜35° C. on solubility” value ([2]; mixtures where solubility was sparingly soluble to insoluble) was “did not have a significant impact”.

In the case of `COC(=O)c1ccccc1O` [Methyl Salicylate, Methyl salicylate], the “Aqueous Soluble.” value [3] is listed as “sparingly”.

For `CCCNC(C)C(=O)Nc1ccccc1C` (centres unmarked) [Prilocaine], the “Aqueous Soluble.” value [3] is listed as “sparingly” and the “Oil Soluble” value [3] is listed as “soluble”.

For `CC1CC[C@H](C(C)C)[C@@H](O)C1` (some centres unmarked) [(d)-menthol], the “analgesic effect (pain threshold)” value [4] is listed as “completely devoid of any analgesic effect”.

For `CCCCCCCCC(=O)NCc1ccc(O)c(OC)c1` [Nonivamide, vanillylamide of n-nonanoic acid], the “solubility levels in methyl salicylate” value [5] was “exceeded 25 wt. %”, the “precipitation from 30 wt. % solution in methyl salicylate” value ([5]; after 2 weeks of storage at 5° C.) was “no evidence of any precipitation” and the “precipitation from 30 wt. % solution in methyl salicylate” value ([5]; powder added at ambient temperature, cooled to −10° C. for 10 hours) was “did not result in the precipitation”.

For `CC(C)[C@@H]1CC[C@@H](C)C[C@H]1O` [(l)-menthol], the “analgesic effect (pain threshold)” value [4] is given as “able to increase pain threshold”.

In the case of `CCO` [Ethyl Alcohol], the “Aqueous Soluble.” value [3] is listed as “miscible” and the “Oil Soluble” value [3] is listed as “soluble”.

In the case of `CC1CCC(C(C)C)C(O)C1` (centres unmarked) [Menthol], the “Oil Soluble” value [3] is given as “soluble”, the “blood flow remains reduced” value ([6]; 10 minutes after application) is given as roughly 20% and the “reduction of blood flow” value ([6]; within 60 seconds of application) is given as 35%.

For `CCOC(=O)c1ccc(N)cc1` [Benzocaine], the “Aqueous Soluble.” value [3] is given as “sparingly” and the “Oil Soluble” value [3] is given as “Soluble”.

For `COc1cc(CNC(=O)CCCC/C=C/C(C)C)ccc1O` [Capsaicin, N-(4-hydroxy-3-methoxybenzyl)-8-methylnon-trans-6-enamide], the “Aqueous Soluble.” value [3] is given as “insoluble”, the “Oil Soluble” value [3] is given as “soluble” and the “solubility in alcohol, methyl salicylate, ether, benzene and chloroform” value [3] is given as “freely soluble”. For the same compound, the solubility in water [3] was “practically insoluble”, the “reduction in nasal airway resistance” value [7] was 60% and the “effectiveness continued for” value ([7]; in most patients) was “more than 4 months”.

In the case of `CC12CCC(CC1=O)C2(C)C` (centres unmarked) [Camphor], the “Oil Soluble” value [3] is given as “soluble”.

From patent US8889659B2, “Pain relief compositions, manufacture and uses” (API Genesis, LLC, priority 2011, dated 2014)
